Reference: article PMC10327353 (Breast Cancer Research : BCR, 2023)

What was measured:
[1] = molecular target: potassium ion-channel hERG (Homo sapiens, UniProt Q12809); assay: hERG in vitro safety pharmacology; assay type: biochemical
Blk(h) = molecular target: T1, Blk(h) (Homo sapiens, UniProt P51451); assay: Kinase panel assay (Eurofins); assay type: biochemical
T1 construct: purchased Eurofins UK Ltd (Dundee, UK)
Method: (§1) In vitro profiling of the 121-recombinant kinase panel was performed at Eurofins UK Ltd (Dundee, UK). In brief, recombinant kinases were incubated within an appropriate buffer containing peptide substrate and radiolabelled γ-^33P-ATP together with the presence or absence of the required compound concentration. The reaction was initiated by adding ATP/Mg^2+ mix. After incubation for 40 minutes at room temperature, the reaction was stopped by adding 3% phosphoric acid solution. A portion of the reaction mix was spotted onto P30 filtermat to trap peptide and washed three times for 5 minutes with phosphoric acid to remove non-specific γ-^33P-ATP. The substrate phosphorylation was then measured by scintillation counting, which determined the level of kinase activity inhibition compared to control reactions. Percentage inhibition data for each kinase was mapped to the kinome tree (www.kinhub.org).

EGFR(T790M,L858R)(h) = molecular target: T2, EGFR(T790M,L858R)(h) (Homo sapiens, UniProt P00533, L858R/T790M); assay: Kinase panel assay (Eurofins); assay type: biochemical
T2 construct: purchased Eurofins UK Ltd (Dundee, UK)
Method: as §1

Met(h) = molecular target: T3, Met(h) (Homo sapiens, UniProt P08581); assay: Kinase panel assay (Eurofins); assay type: biochemical
T3 construct: purchased Eurofins UK Ltd (Dundee, UK)
Method: as §1

Fms(h) = molecular target: T4, Fms(h) (Homo sapiens, UniProt P07333); assay: Kinase panel assay (Eurofins); assay type: biochemical
T4 construct: purchased Eurofins UK Ltd (Dundee, UK)
Method: as §1

Lyn(h) = molecular target: T5, Lyn(h) (Homo sapiens, UniProt P07948); assay: Kinase panel assay (Eurofins); assay type: biochemical
T5 construct: purchased Eurofins UK Ltd (Dundee, UK)
Method: as §1

c-RAF(h) = molecular target: T6, c-RAF(h) (Homo sapiens, UniProt P04049); assay: Kinase panel assay (Eurofins); assay type: biochemical
T6 construct: purchased Eurofins UK Ltd (Dundee, UK)
Method: as §1

EGFR(h) = molecular target: T7, EGFR(h) (Homo sapiens, UniProt P00533); assay: Kinase panel assay (Eurofins); assay type: biochemical
T7 construct: purchased Eurofins UK Ltd (Dundee, UK)
Method: as §1

Lck(h) = molecular target: T8, Lck(h) (Homo sapiens, UniProt P06239); assay: Kinase panel assay (Eurofins); assay type: biochemical
T8 construct: purchased Eurofins UK Ltd (Dundee, UK)
Method: as §1

Lck(h) activated = molecular target: T9, Lck(h) activated (Homo sapiens, UniProt P06239); assay: Kinase panel assay (Eurofins); assay type: biochemical
T9 construct: purchased Eurofins UK Ltd (Dundee, UK)
Method: as §1

ErbB4(h) = molecular target: T10, ErbB4(h) (Homo sapiens, UniProt Q15303); assay: Kinase panel assay (Eurofins); assay type: biochemical
T10 construct: purchased Eurofins UK Ltd (Dundee, UK)
Method: as §1

TrkA(h) = molecular target: T11, TrkA(h) (Homo sapiens, UniProt P04629); assay: Kinase panel assay (Eurofins); assay type: biochemical
T11 construct: purchased Eurofins UK Ltd (Dundee, UK)
Method: as §1

HER2(h) = molecular target: T12, HER2(h) (Homo sapiens, UniProt P04626); assay: Kinase panel assay (Eurofins); assay type: biochemical
T12 construct: purchased Eurofins UK Ltd (Dundee, UK)
Method: as §1

P-gp-BCRP = P-gp-BCRP efflux ratio, cellular transport assay; assay type: in vitro ADME, human
Method: A discussion of the structure–activity relationship (SAR) cumulated in the design of DZD1516 (Fig. 1) is as follows. The HER2 inhibitory potency screening for SAR development was performed using HER2 and EGFR enzymatic assays. The cellular activity was evaluated in HER2+ cell line BT474C1 by measuring pHER2 and antiproliferation activities. Cellular transport assays measuring the permeability and efflux ratio of compounds in cells expressing human P-gp (MDR1) and BCRP were used to provide essential information for assessing their BBB penetration potential.

HER2 = HER2 (Homo sapiens, UniProt P04626); assay: pHER2 MSD assay in BT474C1 cells; assay type: cell-based; set-up: endogenous in cells; host or cells: BT474C1-Luci Mono1 (BT474 transfected with luciferase only); settings: BT474C1, 4 hrs treatment
Method: A431 and BT474C1-Luci Mono1 cells were seeded in 96-well plates at 20,000 cells/well in DMEM medium containing 1% FBS. After overnight incubation, all cells were treated with compounds at a series of concentrations for 4 hrs. For A431 cell line, an extra stimulation with recombinant human EGF (100 ng/ml for 10 minutes) is applied to activate wild-type EGFR following compound treatment. pEGFR^Y1068 and total EGFR levels were measured by an electro chemiluminescent method (MULTI-SPOT®96 4-Spot HB Prototype EGFR Triplex […]: pEGFR (Y1068), Total EGFR; MESO SCALE DISCOVERY, Cat# N45ZB-1) with MSD SECTOR® Imager, which outputs the ratio of pEGFR/total EGFR for each well. pHER2^Y1248 and total HER2 levels were measured similarly using pHER2 (Y1248) Assay Whole Cell Lysate Kit (MESO SCALE DISCOVERY, Cat# K151CLD-3). The percentage of inhibition was calculated as: % Inhibition = 100 x [1 - (ratio of the sample well - ratio of Min ctrl well)/ (ratio of Max ctrl well - ratio of Min ctrl well)].

T3 sequence (P08581 25-1390): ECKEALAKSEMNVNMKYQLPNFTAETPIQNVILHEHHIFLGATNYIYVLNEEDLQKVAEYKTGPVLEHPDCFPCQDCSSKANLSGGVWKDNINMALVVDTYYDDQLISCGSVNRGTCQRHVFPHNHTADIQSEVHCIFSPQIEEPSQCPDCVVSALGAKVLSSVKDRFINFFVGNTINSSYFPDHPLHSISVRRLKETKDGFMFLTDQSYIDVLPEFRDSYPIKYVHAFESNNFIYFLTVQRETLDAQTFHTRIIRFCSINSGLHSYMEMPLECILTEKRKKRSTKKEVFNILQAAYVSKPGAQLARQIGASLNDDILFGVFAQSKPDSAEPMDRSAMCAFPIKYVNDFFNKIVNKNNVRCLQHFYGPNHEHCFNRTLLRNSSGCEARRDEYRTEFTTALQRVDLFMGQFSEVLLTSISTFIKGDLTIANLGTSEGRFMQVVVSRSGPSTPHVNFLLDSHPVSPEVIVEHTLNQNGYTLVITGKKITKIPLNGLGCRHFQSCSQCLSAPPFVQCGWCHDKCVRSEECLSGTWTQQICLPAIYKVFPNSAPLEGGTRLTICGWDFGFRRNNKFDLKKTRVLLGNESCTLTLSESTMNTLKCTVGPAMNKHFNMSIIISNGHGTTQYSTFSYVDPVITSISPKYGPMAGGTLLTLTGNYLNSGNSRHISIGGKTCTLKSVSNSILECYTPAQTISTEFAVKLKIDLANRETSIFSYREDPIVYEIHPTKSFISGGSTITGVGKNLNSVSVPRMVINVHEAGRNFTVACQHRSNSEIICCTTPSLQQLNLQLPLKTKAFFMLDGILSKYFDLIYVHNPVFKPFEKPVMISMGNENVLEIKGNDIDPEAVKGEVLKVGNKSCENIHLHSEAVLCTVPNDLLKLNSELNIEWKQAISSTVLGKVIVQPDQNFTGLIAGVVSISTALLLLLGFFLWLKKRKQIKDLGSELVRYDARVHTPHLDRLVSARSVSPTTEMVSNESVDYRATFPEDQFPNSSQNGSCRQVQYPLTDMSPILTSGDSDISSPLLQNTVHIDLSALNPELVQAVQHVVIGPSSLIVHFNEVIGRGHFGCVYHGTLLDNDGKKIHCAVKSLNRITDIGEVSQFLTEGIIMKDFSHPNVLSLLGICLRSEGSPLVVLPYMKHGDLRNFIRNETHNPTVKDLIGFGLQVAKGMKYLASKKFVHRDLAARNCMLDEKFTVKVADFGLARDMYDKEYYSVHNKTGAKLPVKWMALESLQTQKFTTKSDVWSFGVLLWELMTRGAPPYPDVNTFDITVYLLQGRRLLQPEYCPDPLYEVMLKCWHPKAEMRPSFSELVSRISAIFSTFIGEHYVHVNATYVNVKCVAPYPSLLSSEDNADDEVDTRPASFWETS
Sequence of HER2 (P04626 23-1255): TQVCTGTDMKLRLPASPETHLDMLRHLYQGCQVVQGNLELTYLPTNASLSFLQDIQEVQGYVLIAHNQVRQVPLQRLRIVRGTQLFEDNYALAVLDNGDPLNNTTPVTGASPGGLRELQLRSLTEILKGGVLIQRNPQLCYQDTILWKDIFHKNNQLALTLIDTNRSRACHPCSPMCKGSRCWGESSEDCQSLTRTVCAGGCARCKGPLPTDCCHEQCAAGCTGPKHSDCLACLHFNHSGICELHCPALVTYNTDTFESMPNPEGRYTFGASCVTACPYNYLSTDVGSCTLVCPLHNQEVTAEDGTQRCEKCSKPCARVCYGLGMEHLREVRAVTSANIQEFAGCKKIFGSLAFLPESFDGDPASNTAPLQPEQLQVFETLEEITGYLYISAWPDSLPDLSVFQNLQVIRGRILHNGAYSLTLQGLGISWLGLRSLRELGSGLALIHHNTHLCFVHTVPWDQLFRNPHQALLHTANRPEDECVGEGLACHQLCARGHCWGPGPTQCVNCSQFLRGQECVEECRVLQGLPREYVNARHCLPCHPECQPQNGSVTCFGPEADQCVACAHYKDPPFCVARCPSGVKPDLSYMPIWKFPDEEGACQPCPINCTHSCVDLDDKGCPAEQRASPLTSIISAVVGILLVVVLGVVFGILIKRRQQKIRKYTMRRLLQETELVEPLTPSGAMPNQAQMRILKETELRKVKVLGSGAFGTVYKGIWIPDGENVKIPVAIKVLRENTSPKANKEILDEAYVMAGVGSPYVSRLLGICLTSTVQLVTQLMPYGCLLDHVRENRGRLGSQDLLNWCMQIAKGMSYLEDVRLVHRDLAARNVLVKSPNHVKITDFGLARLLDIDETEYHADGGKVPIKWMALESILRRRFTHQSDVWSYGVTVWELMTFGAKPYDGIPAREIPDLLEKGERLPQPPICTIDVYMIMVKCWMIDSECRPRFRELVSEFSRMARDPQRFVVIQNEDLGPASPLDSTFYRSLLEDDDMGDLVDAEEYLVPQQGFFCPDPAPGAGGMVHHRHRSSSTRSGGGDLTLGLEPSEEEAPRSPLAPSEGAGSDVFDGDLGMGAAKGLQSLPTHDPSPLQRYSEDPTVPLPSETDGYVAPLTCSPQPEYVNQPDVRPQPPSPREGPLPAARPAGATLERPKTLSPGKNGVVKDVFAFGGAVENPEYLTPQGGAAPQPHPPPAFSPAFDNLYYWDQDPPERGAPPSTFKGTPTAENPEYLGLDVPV
T12 sequence (P04626 23-1255): as above
T9 sequence (P06239 whole entry): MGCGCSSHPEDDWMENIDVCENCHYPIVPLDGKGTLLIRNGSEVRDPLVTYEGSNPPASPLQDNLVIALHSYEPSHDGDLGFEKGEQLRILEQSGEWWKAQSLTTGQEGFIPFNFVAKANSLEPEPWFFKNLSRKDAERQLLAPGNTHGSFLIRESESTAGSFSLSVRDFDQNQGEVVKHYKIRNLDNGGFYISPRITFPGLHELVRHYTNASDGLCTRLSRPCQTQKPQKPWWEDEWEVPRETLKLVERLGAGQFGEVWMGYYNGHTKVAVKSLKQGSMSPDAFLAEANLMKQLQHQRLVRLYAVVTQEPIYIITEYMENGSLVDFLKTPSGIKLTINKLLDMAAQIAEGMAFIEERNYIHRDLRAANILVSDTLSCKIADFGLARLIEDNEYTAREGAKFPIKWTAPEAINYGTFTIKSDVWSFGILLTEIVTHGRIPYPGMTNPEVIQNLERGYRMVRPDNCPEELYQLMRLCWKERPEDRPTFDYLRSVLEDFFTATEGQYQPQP
T8 sequence (P06239 whole entry): as above
T1 sequence (P51451 whole entry): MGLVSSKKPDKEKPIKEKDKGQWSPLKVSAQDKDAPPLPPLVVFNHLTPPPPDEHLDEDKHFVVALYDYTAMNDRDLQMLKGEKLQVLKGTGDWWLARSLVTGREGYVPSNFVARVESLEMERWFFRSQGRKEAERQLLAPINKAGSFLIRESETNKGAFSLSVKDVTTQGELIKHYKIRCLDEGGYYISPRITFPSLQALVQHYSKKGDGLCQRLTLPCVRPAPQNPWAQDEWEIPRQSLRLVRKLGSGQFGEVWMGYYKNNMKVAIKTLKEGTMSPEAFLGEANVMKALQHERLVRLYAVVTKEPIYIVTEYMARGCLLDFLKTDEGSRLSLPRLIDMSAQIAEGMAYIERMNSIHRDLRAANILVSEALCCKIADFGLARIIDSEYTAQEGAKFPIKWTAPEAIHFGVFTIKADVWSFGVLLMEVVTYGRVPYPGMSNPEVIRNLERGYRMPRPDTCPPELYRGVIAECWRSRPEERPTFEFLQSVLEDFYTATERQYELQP

SMILES: COc1cc(O[C@H]2CCN(C)CC2(F)F)c2c(Nc3ccc(Oc4ccn5ncnc5c4)c(C)c3)ncnc2c1 [DZD1516]
- IC50 [1]: 3290 nM
- IC50 (Blk(h)): 2670 nM
- IC50 (EGFR(T790M,L858R)(h)): 244 nM
- IC50 (Met(h)): 1090 nM
- IC50 (Fms(h)): 1070 nM
- IC50 (Lyn(h)): 2300 nM
- IC50 (c-RAF(h)): 1040 nM
- IC50 (EGFR(h)): 92 nM
- IC50 (Lck(h)): 433 nM
- IC50 (Lck(h) activated): 180 nM
- IC50 (ErbB4(h)): 52 nM
- IC50 (TrkA(h)): 1290 nM
- IC50 (HER2(h)): 16 nM
- efflux ratio at 1 µM (P-gp-BCRP; human, not told, 1 µM): 1.8
- active efflux via P-gp and BCRP (P-gp-BCRP; in vitro): do not undergo active efflux via P-gp and BCRP in vitro
- IC50 (HER2): 4.4 nM
